Structures are written as SMILES. ≈ marks a conversion by molar mass, not a printed value.

For the assay, the system named is Caenorhabditis elegans. Nature of the assay: Nematocidal against Caenorhabditis elegans N2 assessed as motility after 16 hrs. The format is functional. Particulars: N2, 16 h.
For `OC(CC/C=C/c1ccccc1)CCc1ccccc1` (stereo not given), the EC95 worked out at 0.7 µg/mL (≈ 2.63 µM).
For the molecule `O=C(CC/C=C/c1ccccc1)CCc1ccccc1`, the EC95 came out at 9 µg/mL (≈ 34 µM).
In the case of `O=C(CCc1ccccc1)C[C@@H](O)/C=C/c1ccccc1`, the EC95 was 1 µg/mL (≈ 3.57 µM).
With `OC(/C=C/C=C/c1ccccc1)CCc1ccccc1` (stereo not given), the EC95 is more than 100 µg/mL.
Take `CC(=O)OC(CC/C=C/c1ccccc1)CCc1ccccc1` (stereo not given): the EC95 was determined as 9 µg/mL (≈ 29.2 µM).

The values above are taken from ChEMBL document CHEMBL1148036, “Novel nematocidal agents from Curcuma comosa” (1994).
